Earlier results, collected in patent US20140309168A1, “MODIFIED PEPTIDES AND PROTEINS” (AmideBio, LLC, priority 2010, published 2014).

Conditions: background statement on the marketed peptide

## enfuvirtide
  in vivo half life: about 3.8 hours
